According to paper PMC11855827, “High-Throughput Screening of Five Compound Libraries for Anthelmintic Activity and Toxicity Leads to the Discovery of Two Flavonoid Compounds” (International Journal of Molecular Sciences, 2025):

Tested on: C. elegans
Conditions: Table S2, C. elegans SS assay, 110 μM, averages of 4 data points

CC(C(O)c1ccc(O)cc1)N1CCC(Cc2ccccc2)CC1.CC(C(O)c1ccc(O)cc1)N1CCC(Cc2ccccc2)CC1.O=C(O)C(O)C(O)C(=O)O (stereo not shown) [Ifenprodil (ta rtrate)]
Percentage of motility inhibition 0 h: 12%
Percentage of motility inhibition 24 h: 15%

C[C@@H]1CC[C@]2(C(=O)O)CC[C@]3(C)C(=CC[C@@H]4[C@@]5(C)CC[C@H](O)[C@](C)(C(=O)O)[C@@H]5CC[C@]43C)[C@@H]2[C@]1(C)O [Ilexgenin A]
Percentage of motility inhibition 0 h: 27%
Percentage of motility inhibition 24 h: 0%

C[C@H]1CC[C@]2(C(=O)O)CC[C@]3(C)C(=CC[C@@H]4[C@@]5(C)CC[C@H](O[C@@H]6OC[C@@H](O)[C@H](O)[C@H]6O[C@@H]6O[C@H](CO)[C@@H](O)[C@H](O)[C@H]6O)C(C)(C)[C@@H]5CC[C@]43C)[C@@H]2[C@]1(C)O [Ilexoside D]
Percentage of motility inhibition 0 h: 0%
Percentage of motility inhibition 24 h: 22%

C[C@@H]1CC[C@]2(C(=O)O[C@@H]3O[C@H](CO)[C@@H](O)[C@H](O)[C@H]3O)CC[C@]3(C)C(=CC[C@@H]4[C@@]5(C)CC[C@H](O)[C@](C)(C(=O)O)[C@@H]5CC[C@]43C)[C@@H]2[C@]1(C)O [Ilexsaponin A]
Percentage of motility inhibition 0 h: 0%
Percentage of motility inhibition 24 h: 12%

C[C@H]1CC[C@@H]2N(C1)C[C@H]1[C@@H]3C[C@H]4[C@@H](CC(=O)[C@H]5C[C@@H](O[C@@H]6O[C@H](CO)[C@@H](O)[C@H](O)[C@H]6O)CC[C@@]54C)[C@@H]3CC[C@H]1[C@]2(C)O [Imperialine 3‐β‐D‐glucoside]
Percentage of motility inhibition 0 h: 10%
Percentage of motility inhibition 24 h: 10%

CC(=O)O[C@H]1CC/C(C)=C/CC/C(C)=C/C[C@]2(C(C)C)CC[C@@]1(C)O2 [Incensole Acetate]
Percentage of motility inhibition 0 h: 9%
Percentage of motility inhibition 24 h: 17%

CC(C)(C)NC(=O)[C@@H]1CN(Cc2cccnc2)CCN1C[C@@H](O)C[C@@H](Cc1ccccc1)C(=O)N[C@H]1c2ccccc2C[C@H]1O.O=S(=O)(O)O [Indinavir (sulfate)]
Percentage of motility inhibition 0 h: 8%
Percentage of motility inhibition 24 h: 10%

O=Cc1c[nH]c2ccccc12 [Indole‐3‐carboxaldehyde]
Percentage of motility inhibition 0 h: 0%
Percentage of motility inhibition 24 h: 17%

CC1=C[C@]23C(=O)[C@@H](C=C(COC(=O)c4ccccc4)[C@@H](O)[C@]2(O)[C@H]1OC(=O)c1ccccc1)[C@H]1[C@@H](C[C@H]3C)C1(C)C [Ingenol 3,20-dibenzoate]
Percentage of motility inhibition 0 h: 0%
Percentage of motility inhibition 24 h: 0%

CC1=CC23C(=O)C(C=C4COC(C)(C)OC4C24OC(C)(C)OC14)C1C(CC3C)C1(C)C (stereo not shown) [Ingenol-3,4,5,20-diacetonide]
Percentage of motility inhibition 0 h: 1%
Percentage of motility inhibition 24 h: 9%

C/C=C(/C)C(=O)O[C@H]1C(C)=C[C@]23C(=O)[C@@H](C=C4COC(C)(C)O[C@H]4[C@]12O)[C@H]1[C@@H](C[C@H]3C)C1(C)C [Ingenol-5,20-acetonide-3-O-angelate]
Percentage of motility inhibition 0 h: 0%
Percentage of motility inhibition 24 h: 0%

C=C1C(=O)O[C@@H]2CC(C)=C([C@@H](C)CCCOC(C)=O)[C@@H](O)[C@H]12 [Inulicin]
Percentage of motility inhibition 0 h: 0%
Percentage of motility inhibition 24 h: 16%

C=C[C@H]1[C@H](O[C@@H]2O[C@H](CO)[C@@H](O)[C@H](O)[C@H]2O)OC=C(C(=O)OC)[C@H]1C[C@@H]1c2cc(O)c(O)cc2CCN1C(C)=O [Ipecoside]
Percentage of motility inhibition 0 h: 0%
Percentage of motility inhibition 24 h: 14%

CCc1c2c(nc3ccc(OC(=O)N4CCC(N5CCCCC5)CC4)cc13)-c1cc3c(c(=O)n1C2)COC(=O)[C@]3(O)CC.Cl [Irinotecan (hydrochloride)]
Percentage of motility inhibition 0 h: 0%
Percentage of motility inhibition 24 h: 11%

COc1ccc(-c2coc3cc(O[C@@H]4O[C@H](CO)[C@@H](O)[C@H](O)[C@H]4O)c(OC)c(O)c3c2=O)cc1O [Iristectorin A]
Percentage of motility inhibition 0 h: 0%
Percentage of motility inhibition 24 h: 2%

COc1cc(-c2coc3cc(O[C@@H]4O[C@H](CO)[C@@H](O)[C@H](O)[C@H]4O)c(OC)c(O)c3c2=O)ccc1O [Iristectorin B]
Percentage of motility inhibition 0 h: 5%
Percentage of motility inhibition 24 h: 6%

CC(=O)O[C@@H]1[C@@H](O)[C@H](O[C@H]2CC[C@]34C[C@]35CC[C@]3(C)[C@@H]([C@@]6(C)CC[C@@H](C(C)(C)O)O6)[C@@H](O)C[C@@]3(C)[C@@H]5C[C@H](O[C@@H]3O[C@H](CO)[C@@H](O)[C@H](O)[C@H]3O)[C@H]4C2(C)C)OC[C@H]1O [Isoastragaloside II]
Percentage of motility inhibition 0 h: 0%
Percentage of motility inhibition 24 h: 9%

CC(C)(O[C@@H]1O[C@H](CO)[C@@H](O)[C@H](O)[C@H]1O)[C@@H]1CC[C@](C)([C@H]2[C@@H](O)C[C@@]3(C)[C@@H]4C[C@H](O)[C@H]5C(C)(C)[C@@H](O[C@@H]6OC[C@@H](O)[C@H](O)[C@H]6O)CC[C@@]56C[C@@]46CC[C@]23C)O1 [Isoastragaloside IV]
Percentage of motility inhibition 0 h: 0%
Percentage of motility inhibition 24 h: 0%

CC(=O)O[C@H]1[C@H](O[C@H]2CC[C@]34C[C@]35CC[C@]3(C)[C@@H]([C@@]6(C)CC[C@@H](C(C)(C)O)O6)[C@@H](O)C[C@@]3(C)[C@@H]5C[C@H](O[C@@H]3O[C@H](CO)[C@@H](O)[C@H](O)[C@H]3O)[C@H]4C2(C)C)OC[C@@H](OC(C)=O)[C@@H]1O [Isoastragaloside I]
Percentage of motility inhibition 0 h: 12%
Percentage of motility inhibition 24 h: 59%

Clc1ccc(C(Cn2ccnc2)OCc2c(Cl)cccc2Cl)c(Cl)c1.O=[N+]([O-])O (stereo not shown) [Isoconazole (nitrate)]
Percentage of motility inhibition 0 h: 17%
Percentage of motility inhibition 24 h: 4%

CC1(C)C2=CCCC(C)(C)[C@]23CC[C@H]1C3 [Isolongifolene]
Percentage of motility inhibition 0 h: 2%
Percentage of motility inhibition 24 h: 39%

O=c1c2cc(O)c(O)cc2oc2c([C@@H]3O[C@H](CO)[C@@H](O)[C@H](O)[C@H]3O)c(O)cc(O)c12 [Isomangiferin]
Percentage of motility inhibition 0 h: 28%
Percentage of motility inhibition 24 h: 46%

C[C@H](CC[C@@H](O[C@@H]1O[C@H](CO[C@@H]2O[C@H](CO)[C@@H](O)[C@H](O)[C@H]2O)[C@@H](O)[C@H](O)[C@H]1O[C@@H]1O[C@H](CO)[C@@H](O)[C@H](O)[C@H]1O)C(C)(C)O)[C@H]1CC[C@@]2(C)[C@@H]3CC=C4[C@@H](CC[C@H](O[C@@H]5O[C@H](CO)[C@@H](O[C@@H]6O[C@H](CO)[C@@H](O)[C@H](O)[C@H]6O)[C@H](O)[C@H]5O)C4(C)C)[C@]3(C)[C@H](O)C[C@]12C [Isomogroside V]
Percentage of motility inhibition 0 h: 28%
Percentage of motility inhibition 24 h: 21%

COc1ccc([C@@H]2COc3cc(O[C@@H]4O[C@H](CO)[C@@H](O)[C@H](O)[C@H]4O)ccc3C2)c(O)c1OC [Isomucronulatol 7‐O‐glucoside]
Percentage of motility inhibition 0 h: 8%
Percentage of motility inhibition 24 h: 10%

COc1ccc(C2COc3cc(O)ccc3C2)c(O)c1OC (stereo not shown) [Isomucronulatol]
Percentage of motility inhibition 0 h: 7%
Percentage of motility inhibition 24 h: 7%

COC(=O)C1=CO[C@@H](C)[C@@H]2CN3CC[C@@]4(C(=O)Nc5ccccc54)[C@@H]3C[C@H]12 [Isopteropodine]
Percentage of motility inhibition 0 h: 9%
Percentage of motility inhibition 24 h: 0%
